Assay results from patent publication US7022480B1, “Exons of the hSKCa3/KCNN3 gene” (priority 2001, dated 2006).

Legend:
GFP-SKCa1 currents = assay: Co-expression with GFP-SKCa1 in mammalian cells, calcium-activated currents; assay type: cell-based; conditions: expressed in mammalian cells
Source text: GFP-SKCa1 produces robust calcium-activated currents when expressed in COS-7 cells (Shakkottai et al., J. Biol. Chem. 276 (46): 43145–43151, 2001.). When co-expressed with fluorescently labeled SKCa3-1b (Tomita et al, 2002 Mol. Psych. In press) or fluorescently labeled SKCa3-1c, dominant-negative suppression of SKCa3-1a is seen. Similarly, fluorescently labeled SKCa3-1b (Tomita et al, 2002 Mol. Psych. In press) and fluorescently labeled SKCa3-1c dominant-negatively suppress endogenous SKCa currents present in PC12 cells (Sun et al., J. Hum. Genet. 46, 463–470, 2001.).

SKCa3-1a currents = assay: Co-expression with SKCa3-1a in mammalian cells, calcium-activated currents; assay type: cell-based; conditions: untagged or with a GFP tag
Sequence of SKCa3-1a currents (Q9UGI6 81-731): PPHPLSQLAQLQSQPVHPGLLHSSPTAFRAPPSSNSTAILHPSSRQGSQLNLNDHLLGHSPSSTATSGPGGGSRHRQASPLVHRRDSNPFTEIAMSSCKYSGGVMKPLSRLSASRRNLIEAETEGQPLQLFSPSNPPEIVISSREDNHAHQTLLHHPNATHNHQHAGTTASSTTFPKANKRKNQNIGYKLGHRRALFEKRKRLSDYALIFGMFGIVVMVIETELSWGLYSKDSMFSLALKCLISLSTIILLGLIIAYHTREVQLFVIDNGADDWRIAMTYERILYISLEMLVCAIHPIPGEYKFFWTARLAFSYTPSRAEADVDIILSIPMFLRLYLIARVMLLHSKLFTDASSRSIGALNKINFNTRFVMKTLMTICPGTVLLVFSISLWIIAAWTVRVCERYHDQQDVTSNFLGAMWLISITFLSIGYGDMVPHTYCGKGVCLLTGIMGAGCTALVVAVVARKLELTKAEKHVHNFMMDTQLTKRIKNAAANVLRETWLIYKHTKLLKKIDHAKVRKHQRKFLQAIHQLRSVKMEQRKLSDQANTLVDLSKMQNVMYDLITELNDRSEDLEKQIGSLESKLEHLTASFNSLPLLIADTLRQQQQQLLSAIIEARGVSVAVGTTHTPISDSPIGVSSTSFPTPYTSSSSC
Source text: When normally expressed in mammalian cells, native or green fluorescence protein (GFP) tagged SKCa3-1a produces robust apamin- and Leiurus toxin-sensitive calcium-activated currents (Shakkottai et al., J. Biol. Chem. 276 (46): 43145–43151, 2001.).

SKCa and IKCa1 channel = conditions: reported in the literature; cited from earlier work
[1] = target: T1, SK2 channels in Jurkat T lymphocytes (Homo sapiens, UniProt Q9H2S1); assay: Whole-cell patch clamp of native SK2 current in Jurkat T lymphocytes; assay type: cell-based; conditions: transfected Jurkat T lymphocytes
T1 construct: endogenous in cells; host or cells: Jurkat T lymphocytes
T1 sequence (Q9H2S1 whole entry): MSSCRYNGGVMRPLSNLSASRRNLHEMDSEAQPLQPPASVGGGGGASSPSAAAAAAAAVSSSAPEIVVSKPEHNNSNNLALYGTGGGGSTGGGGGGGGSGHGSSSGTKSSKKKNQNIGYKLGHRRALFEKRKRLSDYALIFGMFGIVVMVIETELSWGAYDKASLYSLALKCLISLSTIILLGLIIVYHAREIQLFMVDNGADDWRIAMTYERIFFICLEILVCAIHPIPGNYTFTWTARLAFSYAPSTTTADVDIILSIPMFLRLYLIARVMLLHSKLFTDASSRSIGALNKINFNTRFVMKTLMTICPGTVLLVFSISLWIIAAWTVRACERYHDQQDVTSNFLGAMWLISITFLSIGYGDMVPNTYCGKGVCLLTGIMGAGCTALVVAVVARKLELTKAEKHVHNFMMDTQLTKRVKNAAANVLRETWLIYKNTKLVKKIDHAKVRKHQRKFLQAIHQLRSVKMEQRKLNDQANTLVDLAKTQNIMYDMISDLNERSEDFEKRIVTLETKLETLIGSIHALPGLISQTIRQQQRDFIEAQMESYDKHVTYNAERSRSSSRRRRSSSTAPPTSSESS
Experimental: (§1) PC12 and Jurkat T cells were studied in the whole cell configuration of the patch clamp technique with a holding potential of −80 mV. SK and Kv current amplitude were determined in untransfected cells or in cells transfected with SKCa3-1b-GFP, SKCa3-1b-IRES-GFP, or control constructs (GFP vector alone, GFP-Kv1.7). […] Brightly GFP-positive cells were identified under a fluorescence microscope to allow the analysis of cells expressing high levels of the channel constructs for electrophysiological studies. Control constructs were expressed at equivalently high levels as assessed by the intensity of the GFP signal.
(§2) To activate SK channels, the pipette solution contained (in mM): 145 K^+ aspartate, 2 MgCl2, 10 HEPES, 10 K2EGTA, and 8.5 CaCl2 (1 μM free Ca^2+), pH 7.2, 290–310 mOsm. […] The amplitude of the KV current was measured as the maximum current at 30 mV in 160 Na^+ aspartate. […]
(§3) Human Jurkat T lymphocyte cell line was chosen for these experiments because they express SK2 channels and no other SK channels, along with voltage-gated Kv1.3 channels that could serve as an internal control (Fanger et al, J. Biol. Chem. 2001; 276: 12249–12256; Grissmer et al, J. Gen. Physiol. 1992; 99: 63–84; Desai et al, J. Biol. Chem. 2000; 275: 39954–39963.). Using the electrophysiological protocol described above for PC12 cells, SK2 and Kv1.3 currents in Jurkat cells were measured. […]

[2] = target: T2, Kv1.3 channels in Jurkat T lymphocytes (Homo sapiens, UniProt P22001); assay: Whole-cell patch clamp of Kv1.3 current in Jurkat T lymphocytes (internal control); assay type: cell-based; conditions: transfected Jurkat T lymphocytes
T2 construct: endogenous in cells; host or cells: Jurkat T lymphocytes
T2 sequence (P22001 whole entry): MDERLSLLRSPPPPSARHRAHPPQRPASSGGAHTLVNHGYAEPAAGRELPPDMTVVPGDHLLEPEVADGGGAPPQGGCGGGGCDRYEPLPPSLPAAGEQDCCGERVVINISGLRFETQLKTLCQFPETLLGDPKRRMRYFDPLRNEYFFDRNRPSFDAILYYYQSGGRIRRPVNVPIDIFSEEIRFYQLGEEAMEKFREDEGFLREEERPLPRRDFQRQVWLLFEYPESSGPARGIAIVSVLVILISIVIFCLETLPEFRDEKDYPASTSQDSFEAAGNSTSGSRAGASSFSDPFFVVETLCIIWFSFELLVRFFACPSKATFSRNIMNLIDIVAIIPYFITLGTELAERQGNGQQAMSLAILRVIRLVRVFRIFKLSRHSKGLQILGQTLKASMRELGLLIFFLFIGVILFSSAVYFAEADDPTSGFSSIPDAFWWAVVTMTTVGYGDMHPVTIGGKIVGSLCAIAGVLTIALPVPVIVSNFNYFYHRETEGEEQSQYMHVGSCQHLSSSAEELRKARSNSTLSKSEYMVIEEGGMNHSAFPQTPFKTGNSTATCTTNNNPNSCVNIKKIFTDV
Experimental: as §1, §2, §3

Sequence of GFP-SKCa1 currents (Q92952 2-543): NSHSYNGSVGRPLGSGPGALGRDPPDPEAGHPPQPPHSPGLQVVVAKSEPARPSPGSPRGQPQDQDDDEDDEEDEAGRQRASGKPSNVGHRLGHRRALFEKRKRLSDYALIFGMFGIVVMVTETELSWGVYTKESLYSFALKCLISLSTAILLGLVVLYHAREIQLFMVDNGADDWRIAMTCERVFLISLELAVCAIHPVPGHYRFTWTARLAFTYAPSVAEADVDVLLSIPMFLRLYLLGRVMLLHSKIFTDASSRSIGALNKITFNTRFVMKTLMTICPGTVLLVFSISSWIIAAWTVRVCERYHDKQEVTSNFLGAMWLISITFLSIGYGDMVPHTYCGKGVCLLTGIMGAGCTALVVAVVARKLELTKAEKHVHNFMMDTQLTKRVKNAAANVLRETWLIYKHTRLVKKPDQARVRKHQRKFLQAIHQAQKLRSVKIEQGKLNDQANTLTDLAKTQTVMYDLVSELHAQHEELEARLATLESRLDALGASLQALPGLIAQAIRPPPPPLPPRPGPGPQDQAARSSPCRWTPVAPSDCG

Compound | effect on GFP-SKCa1 currents (GFP-SKCa1 currents) | effect of co-expression on SKCa3-1a current (SKCa3-1a currents) | effect on SKCa and IKCa1 channel opening (SKCa and IKCa1 channel) | effect of transfection on native SK2 current [1] | effect of transfection on control Kv1.3 current [2]
SKCa3-1c: isoform variant of the SK3 gene (SEQ ID NO: 4) using exon 1c, lacking N-terminus and S1 segment | negative dominantly suppress | comparable results |  |  | 
CCn1c(=O)[nH]c2ccccc21 [1-ethyl-2-benzimidazolinone] |  |  | enhance SKCa and IKCa1 channel opening |  | 
SKCa3-1b: isoform variant of the SK3 gene (SEQ ID NO: 2) using exon 1b, lacking N-terminus and S1 segment | negative dominantly suppress | selective dramatic inhibition |  | suppressed | unaffected
